From ChEMBL document CHEMBL3091362, “Molecular basis for the long duration of action and kinetic selectivity of tiotropium for the muscarinic M3 receptor” (J Med Chem, 2013)

Tests used:
[1] = biological target: T1, Muscarinic acetylcholine receptor M3 (Homo sapiens, UniProt P20309); assay: biochemical; type: cell-based, HEK-293T
Target sequence in this assay (P20309 whole entry): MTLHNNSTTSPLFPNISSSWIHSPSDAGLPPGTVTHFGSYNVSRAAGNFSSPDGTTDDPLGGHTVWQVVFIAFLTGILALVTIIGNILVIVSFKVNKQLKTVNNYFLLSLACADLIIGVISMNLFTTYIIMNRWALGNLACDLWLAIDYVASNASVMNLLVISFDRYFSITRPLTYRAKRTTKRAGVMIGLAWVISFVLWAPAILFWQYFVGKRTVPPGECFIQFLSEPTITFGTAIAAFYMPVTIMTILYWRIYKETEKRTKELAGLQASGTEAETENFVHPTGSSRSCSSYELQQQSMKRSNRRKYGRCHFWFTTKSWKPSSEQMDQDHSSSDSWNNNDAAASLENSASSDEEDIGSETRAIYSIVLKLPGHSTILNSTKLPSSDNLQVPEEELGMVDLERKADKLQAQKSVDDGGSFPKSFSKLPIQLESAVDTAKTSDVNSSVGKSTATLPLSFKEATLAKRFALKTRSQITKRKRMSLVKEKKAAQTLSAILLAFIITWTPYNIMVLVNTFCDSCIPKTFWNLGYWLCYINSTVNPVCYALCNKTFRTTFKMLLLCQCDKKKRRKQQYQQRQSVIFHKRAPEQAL
Description: Binding affinity to wild type human M3 receptor expressed in HEK293T cells up to 24 hrs by radioligand displacement assay

[2] = test system: Muscarinic acetylcholine receptor M3 (Homo sapiens), P20309 [K213A]; conditions: HEK-293T
[3] = test system: Muscarinic acetylcholine receptor M3 (Homo sapiens), P20309 [R133A]; conditions: HEK-293T
[4] = biological target: T1, Muscarinic acetylcholine receptor M3; conditions: HEK-293T
Target sequence in this assay (P20309 whole entry, looked up): as the sequence (P20309 whole entry) above
Description: Binding affinity to wild type human M3 receptor expressed in HEK293T cells assessed as half life by radioligand displacement assay

[5] = test system: Muscarinic acetylcholine receptor M3 (Homo sapiens), P20309 [K523A]; conditions: HEK-293T
[6] = test system: Muscarinic acetylcholine receptor M3 (Homo sapiens), P20309 [F225A]; conditions: HEK-293T
[7] = test system: Muscarinic acetylcholine receptor M3 (Homo sapiens), P20309 [Q224A]; conditions: HEK-293T
[8] = test system: Muscarinic acetylcholine receptor M3 (Homo sapiens), P20309 [D518A]; conditions: HEK-293T
[9] = test system: Muscarinic acetylcholine receptor M3 (Homo sapiens), P20309 [E220A]; conditions: HEK-293T
[10] = test system: Muscarinic acetylcholine receptor M3 (Homo sapiens), P20309 [E228A]; conditions: HEK-293T
[11] = test system: Muscarinic acetylcholine receptor M3 (Homo sapiens), P20309 [F222A]; conditions: HEK-293T
Sequence of Muscarinic acetylcholine receptor M3 (Homo sapiens), P20309 [F222A] (P20309 whole entry F222A): as the sequence (P20309 whole entry) above, with F222A counted along it

Sequence of Muscarinic acetylcholine receptor M3 (Homo sapiens), P20309 [R133A] (P20309 whole entry R133A): as the sequence (P20309 whole entry) above, with R133A counted along it
Sequence of Muscarinic acetylcholine receptor M3 (Homo sapiens), P20309 [K523A] (P20309 whole entry K523A): as the sequence (P20309 whole entry) above, with K523A counted along it
Sequence of Muscarinic acetylcholine receptor M3 (Homo sapiens), P20309 [E220A] (P20309 whole entry E220A): as the sequence (P20309 whole entry) above, with E220A counted along it
Sequence of Muscarinic acetylcholine receptor M3 (Homo sapiens), P20309 [D518A] (P20309 whole entry D518A): as the sequence (P20309 whole entry) above, with D518A counted along it
Sequence of Muscarinic acetylcholine receptor M3 (Homo sapiens), P20309 [Q224A] (P20309 whole entry Q224A): as the sequence (P20309 whole entry) above, with Q224A counted along it
Sequence of Muscarinic acetylcholine receptor M3 (Homo sapiens), P20309 [F225A] (P20309 whole entry F225A): as the sequence (P20309 whole entry) above, with F225A counted along it
Sequence of Muscarinic acetylcholine receptor M3 (Homo sapiens), P20309 [K213A] (P20309 whole entry K213A): as the sequence (P20309 whole entry) above, with K213A counted along it
Sequence of Muscarinic acetylcholine receptor M3 (Homo sapiens), P20309 [E228A] (P20309 whole entry E228A): as the sequence (P20309 whole entry) above, with E228A counted along it

Question: For C[N+]1(C)[C@@H]2C[C@H](OC(=O)C(CO)(c3cccs3)c3cccs3)C[C@H]1[C@@H]1O[C@@H]12, which Ki [1] is on record?
Answer: Its Ki is 0.316 nM.

Question: C[N+]1(C)[C@@H]2C[C@H](OC(=O)C(O)c3cccs3)C[C@H]1[C@@H]1O[C@@H]12 (stereo partly specified) was tested. Which Ki [1] did it give?
Answer: Its Ki is 5.01 nM.

Question: With COC(C(=O)O[C@H]1C[C@@H]2[C@H]3O[C@H]3[C@H](C1)[N+]2(C)C)(c1cccs1)c1cccs1 as the compound, how does the Ki [1] read?
Answer: Its Ki is 1.58 nM.

Question: Which T1/2 [2] does the source give for C[N+]1(C)[C@@H]2C[C@@H](OC(=O)C(O)(c3cccs3)c3cccs3)C[C@H]1[C@@H]1O[C@@H]12 here?
Answer: Its T1/2 is 20.4 h.

Question: What about the T1/2 [3] of the same compound?
Answer: The T1/2 was 25.4 h.

Question: And the T1/2 [4]?
Answer: Its T1/2 is 24.5 h.

Question: And the T1/2 [5]?
Answer: The T1/2 was 12.5 h.

Question: And the T1/2 [6]?
Answer: Its T1/2 is 13.8 h.

Question: What about the T1/2 [7] of the same compound?
Answer: Its T1/2 is 12.4 h.

Question: And the T1/2 [8]?
Answer: The T1/2 was 22.6 h.

Question: And the T1/2 [9]?
Answer: The T1/2 was 31.7 h.

Question: What about the T1/2 [10] of the same compound?
Answer: Its T1/2 is 20.1 h.

Question: And the T1/2 [11]?
Answer: Its T1/2 is 23 h.

Question: Which Ki [1] does the source give for C[N+]1(C)[C@@H]2C[C@H](OC(=O)C(O)(c3ccccc3)c3ccccc3)C[C@H]1[C@@H]1O[C@@H]12 here?
Answer: The Ki was 0.0631 nM.

Question: For C[N+]1(C)[C@@H]2C[C@H](OC(=O)C(O)c3ccccc3)C[C@H]1[C@@H]1O[C@@H]12 (stereo partly specified), which Ki [1] is on record?
Answer: The Ki was 2 nM.

Question: Which Ki [1] does the source give for CC(C(=O)O[C@H]1C[C@@H]2[C@H]3O[C@H]3[C@H](C1)[N+]2(C)C)(c1cccs1)c1cccs1 here?
Answer: Its Ki is 0.0501 nM.
